Source: publication PMC11799985 (ACS Omega, 2024)
Values joined by “and” are separate entries in the source; they are usually repeats but may differ in a detail not shown here. Equal values may be shown once. Read-outs that look alike come from different tables or passages of the source.

Experiments:
[1] = system: T. cruzi epimastigote; set-up: method as in PMID 26014945, PMID 29357372, PMID 28241112, PMID 19937668, PMID 19060927; details: cited from earlier work
[2] = system: T. cruzi amastigote; set-up: method as in PMID 26014945, PMID 29357372, PMID 28241112, PMID 19937668, PMID 19060927; details: cited from earlier work
[3] = system: T. cruzi; set-up: method as in PMID 34936867; details: T. cruzi-infected mice; cited from earlier work
[4] = system: human lung cells (WI-26VA-4); set-up: method as in PMID 33295837; details: WI-26VA-4 human lung cells; cited from earlier work
[5] = molecular target: T1, TbSir2rp1 (Trypanosoma brucei brucei, UniProt Q57V41); assay: biochemical; details: for ligand efficiency (LE): LE = –R·T·ln(IC50)/HAC, from TbSir2rp1 IC50; for IC50: enzyme 1 μM, NAD+ 100 μM, acetylated peptide 50 μM, 37 °C, 2 h; for Hill coefficient (nH): concentration–response curve against TbSir2rp1
T1 construct: The TbSir2rp1 gene was cloned into the pET24(+) expression plasmid (Novagen); His tag; made in house; host or cells: Escherichia coli BL21-Codon Plus (DE3)-RIL
T1 sequence (Q57V41 1-351): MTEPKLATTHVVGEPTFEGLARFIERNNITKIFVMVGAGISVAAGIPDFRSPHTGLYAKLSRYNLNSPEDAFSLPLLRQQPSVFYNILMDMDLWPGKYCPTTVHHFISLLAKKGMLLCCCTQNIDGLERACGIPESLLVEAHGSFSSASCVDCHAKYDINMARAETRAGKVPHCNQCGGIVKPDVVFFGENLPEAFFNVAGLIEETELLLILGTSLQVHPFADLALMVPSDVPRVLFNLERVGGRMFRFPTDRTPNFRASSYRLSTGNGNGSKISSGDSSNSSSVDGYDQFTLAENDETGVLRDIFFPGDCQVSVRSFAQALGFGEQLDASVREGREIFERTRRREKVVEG
Description: The acetylated peptide corresponds to the sequence Abz-Gly-Pro-acetylLys-SerGln–EDDnp, where Abz is ortho-aminobenzoic acid and EDDnp is N-[2,4-dinitrophenyl]ethylenediamine.
To halt the deacetylation reaction, 4 mM nicotinamide was used. For each pair of wells in the 96-well plate, 0.2 mg/mL of trypsin was added to only one well to hydrolyze the acetylated peptide, enabling fluorescence emission. Fluorescence was measured immediately at 420 nm with excitation at 320 nm using a SpectraMax M2 microplate reader (Molecular Devices).
Deacetylation activity was determined by the difference between the well where trypsin was added and the well without trypsin. All assays were performed in triplicate, and activity values were reported as means ± standard deviations with outliers identified and excluded from the calculations. Statistical analyses were conducted using Prism 7 software (GraphPad).
The screening of the 90 fragments was performed at a single concentration of 500 μM in triplicate. The enzyme was used at 1 μM, and the substrates NAD^+ and acetylated peptide were used at 100 and 50 μM, respectively. Incubation was carried out at 37.0 °C for 2 h. Each fragment was added to a pair of wells, with trypsin being added to only one well, as previously described for inhibitory activity calculation. […] Ligand efficiency (LE) was calculated as LE = –R·T·ln(IC50)/HAC using IC50 values instead of KD for comparison. […] The inhibition mechanism was characterized using Lineweaver–Burk plots under five concentrations of each substrate and three concentrations of the fragment. IC50 values were determined with at least seven different concentrations, and Lineweaver–Burk analysis used six concentrations.

[6] = system: L. donovani amastigote; set-up: method as in PMID 26014945, PMID 29357372, PMID 28241112, PMID 19937668, PMID 19060927; details: cited from earlier work
[7] = system: L. infantum amastigote; set-up: method as in PMID 26014945, PMID 29357372, PMID 28241112, PMID 19937668, PMID 19060927; details: cited from earlier work
[8] = system: LiSir2rp1; set-up: method as in PMID 26014945, PMID 29357372, PMID 28241112, PMID 19937668, PMID 19060927; details: cited from earlier work
[9] = system: TcSir2rp3; set-up: method as in PMID 26014945, PMID 29357372, PMID 28241112, PMID 19937668, PMID 19060927; details: cited from earlier work
[10] = molecular target: T1, TbSir2rp1; assay: biochemical; assay type: biochemical
[11] = system: infected mice; details: cited from earlier work
[12] = system: T. brucei; set-up: method as in PMID 7097719; details: cited from earlier work
[13] = read-out: % Inhibition TbSir2rp1, Table S2, complete fragment library, single concentration of 500 μM
[14] = read-out: % Inhibition TbSir2rp1 at 500 μM, Table 1, fragment 500 μM, triplicate, mean ± SD

O=C1c2cccc3cccc(c23)C(=O)N1CCCNCCCCNCCCNCCCN1C(=O)c2cccc3cccc(c23)C1=O [BNIPSpd]
EC50 [1]: 13.3 µM | EC50 [2]: 2.8 µM

O=C(/C=C/c1cccc2c1oc1ccccc12)NO [TB56]
parasite burden [3]: reduced parasite burden

Cc1ccc(S(=O)(=O)N/N=C/c2cccs2)cc1 [Fragment 2]
CC50 [4]: 226 µM | ligand efficiency (LE) [5]: 0.31 | IC50 ([5]; TbSir2rp1, read-out: IC50): < 100 µM and 77.9 µM | Hill coefficient (nH) [5]: 0.77 | inhibition at 500 µM [5, 13]: 84 ± 2.3% | inhibition at 500 µM [5, 14]: 83.7 ± 2.3%

O=c1[nH]c(=S)[nH]c(-c2ccccc2)c1Cc1c(O)ccc2ccccc12 [cambinol]
EC50 [6]: 1.7 µM

CC(NC(=O)c1ccccc1/N=C/c1c(O)ccc2ccccc12)c1ccccc1 (stereo not shown) [sirtinol]
EC50 [7]: 30 µM | IC50 [8]: 194 µM | EC50 [6]: 5 µM

CC(C(=O)Nc1cccc(/N=C/c2c(O)ccc3ccccc23)c1)c1ccccc1 (stereo not shown) [salermide]
IC50 [9]: 1 µM | EC50 [1]: 10.6 µM

NNS(=O)(=O)c1ccc(Cl)cc1 [NNS(=O)(C1=CC=C(Cl)C=C1)=O]
inhibition at 500 µM [5, 13]: 37 ± 24%

CS(=O)(=O)Nc1cccc(-c2nc3ccccc3[nH]2)c1
inhibition at 500 µM [5, 13]: -0.8 ± 4.1%

Cc1cc(NS(=O)(=O)c2ccc(N)cc2)no1 [sulfamethoxazole, reference compound]
inhibition at 100 µM ([10]; read-out: % inhibition at 100 µM, Table S3, sulfonyl-hydrazone series, single concentration of 100 μM): 2 ± 5.3% | inhibition of TbSir2rp1 (in words) [5]: did not induce any inhibition

N[C@@H](Cc1ccc(O)c(O)c1)C(=O)O [O=C(O)[C@@H](N)CC1=CC=C(O)C(O)=C1]
inhibition at 500 µM [5, 13]: -4 ± 4.1%

O=C1C(O)=C(Nc2ccccc2)C(=O)c2ccccc21 [Fragment 13]
inhibition at 500 µM [5, 13]: 95 ± 4.9% | inhibition at 500 µM [5, 14]: 95.3 ± 4.9%

Cc1cc(C)nc(NS(=O)(=O)c2ccc(N)cc2)n1 [sulfamethazine]
% inhibition at 100 µM ([10]; Table S3, sulfonyl-hydrazone series, single concentration of 100 μM): Inconc.

O=c1[nH]nc(-c2ccccc2)[nH]1 [O=C1NC(C2=CC=CC=C2)=NN1]
inhibition at 500 µM [5, 13]: 0.91 ± 7.3%

NC(N)=NS(=O)(=O)c1ccc(N)cc1 [N/C(N)=N\S(=O)(C1=CC=C(N)C=C1)=O]
inhibition at 500 µM [5, 13]: 1.8 ± 1.9%

Cc1ccc(S(=O)(=O)N(C)/N=C/c2cccs2)cc1 [Fragment 9]
inhibition at 500 µM [5, 13]: 65 ± 1.7% | inhibition at 500 µM [5, 14]: 64.8 ± 1.7%

Sc1nc2ccccc2s1 [Fragment 1.3]
IC50 ([5]; IC50, TbSir2rp1): 125 µM | ligand efficiency (LE) [5]: 0.54 | Hill coefficient (nH) [5]: 1.04

Cc1ccc(S(=O)(=O)n2ncc3ccccc32)cc1 [CC1=CC=C(S(N2N=CC3=C2C=CC=C3)(=O)=O)C=C1]
inhibition at 500 µM [5, 13]: 4 ± 30%

NC(=O)c1cnccn1 [O=C(C1=NC=CN=C1)N]
inhibition at 500 µM [5, 13]: 22 ± 1.5%

CC(C)[C@@H]1CC[C@@H](C)CC1O (stereo partly shown) [OC1[C@H](C(C)C)CC[C@@H](C)C1]
inhibition at 500 µM [5, 13]: 22 ± 5%

COc1cc2cn[nH]c2cn1 [COC1=NC=C(NN=C2)C2=C1]
inhibition at 500 µM [5, 13]: 56 ± 15%

N/C(=N/c1ccccc1)Nc1ccccc1 [N/C(NC1=CC=CC=C1)=N/C2=CC=CC=C2]
inhibition at 500 µM [5, 13]: 2.6 ± 1.1%

Cc1c(O)c2ccccc2c2nc(N)sc12 [Fragment 1]
maximum tolerated dose [11]: 50 mg/kg | minimum lytic concentration [12]: 100 µM | ligand efficiency (LE) [5]: 0.41 | IC50 ([5]; TbSir2rp1, read-out: IC50): 17.8 µM | Hill coefficient (nH) [5]: 1.22 | inhibition at 500 µM [5, 13]: 99 ± 0.47% | inhibition at 500 µM [5, 14]: 99 ± 0.5%

O=C1NC(=O)C(c2ccccc2)(c2ccccc2)N1 [O=C1NC(C(C2=CC=CC=C2)(C3=CC=CC=C3)N1)=O]
inhibition at 500 µM [5, 13]: 52 ± 2.3%

COC(=O)Nc1nc2ccc(C(=O)c3ccccc3)cc2[nH]1 [mebendazole, reference compound]
ligand efficiency (LE) [5]: 0.24 | IC50 ([5]; TbSir2rp1, read-out: IC50): 121 µM | Hill coefficient (nH) [5]: 1.25

O=C(O)c1ccccc1O [O=C(O)C1=CC=CC=C1O]
inhibition at 500 µM [5, 13]: -10 ± 1.7%

O=C1Cc2cnccc2CN1 [Fragment 8]
inhibition at 500 µM [5, 13]: 55 ± 4.8% | inhibition at 500 µM [5, 14]: 55.5 ± 4.8%
